Measurements reported in patent US20250320190A1, “Novel Inhibitors of Leucine Carboxyl Methyltransferase-1 (LCMT-1) and Methods of Use Thereof” (Temple University-Of The Commonwealth System of Higher …, priority 2024, published 2025).
Like-named read-outs stand apart in the source and are kept apart here.

Legend:
[1] = Liver microsomal stability; type: in vitro ADME
Text: There is no cause for concern at this stage since there are multiple strategies and reagents for enhancing aqueous solubility for animal in vivo studies (Savjani, K. T., A. K. Gajjar and J. K. Savjani, 2012, ISRN Pharm 2012: 195727.). […] While target tissue exposure is dependent on free, unbound fractions in the plasma, plasma protein binding can protect compounds from hepatic metabolism. Thus, in vivo metabolism and excretion are often determined by a balance between these two properties. In vivo half-life is a complicated property impacted upon by multiple factors and is difficult to predict. […] While these numbers are somewhat low for a drug candidate, they are acceptable for proof of concept tool molecules which can be given multiple times per day and at higher doses to saturate metabolism.

[2] = test system: 501-MEL cells; experiment: Radiosensitization assay (crystal violet); type: cell-based, human; settings: 8 Grays
Method: (§1) MCF7, MDA-MB-231, 501-MEL, Rosi, A549, SCC-15, SCC-25, UM-SCC-12, UM-SCC-14a, UM-SCC-49 and UM-SCC69 cells were seeded in 96-well tissue culture plates as previously described. After 24 hours, the media were changed to media with LCMT-li at various concentrations as described. After 3 hours, cells were irradiated at doses listed in Table 2 with an RS-2000 X-Ray Irradiator (Rad Source Technologies, Buford, Georgia). Radiation doses were based on published radiosensitization studies. After 24 hours cell viability was assessed using crystal violet staining. Briefly, cells were washed with PBS, then stained with crystal violet solution (0.25 g crystal violet in 20% methanol) for 20 minutes with agitation. The wells were washed 6 times with PBS to remove excess crystal violet. Plates were allowed to dry for 48 hours, and then 200 μL methanol was added to each well. The plates were agitated for 20 minutes to dissolve the crystal violet, and absorbance was read at 560 nm. The
(§2) radiosensitization assays were performed twice, each time with eight replicates per condition.

[3] = test system: UM-SCC-49 cells; experiment: Radiosensitization assay (crystal violet); type: cell-based, human; settings: irradiated 8 Grays 3 hours after compound, viability after 24 hours, listed as LCMT-li
Method: as §1, §2

[4] = test system: MCF7 cells; experiment: Radiosensitization assay (crystal violet); type: cell-based, human; settings: 4 Grays
Method: as §1, §2

[5] = test system: HEK-293 cells; experiment: Cytotoxicity assay (calcein-AM); type: cell-based; settings: Homo sapiens, HEK293; HEK-293; 48 hours; read-out: Log [μM] EC50 (converted)
Method: (§3) HS-5, HEK-293, MCF7, MDA-MB-231 and Rosi cells were seeded in 96-well optical bottom tissue culture plates (Corning, New York) at a density of 2.5×10^3 cells/well. After 24 hours, the media were changed to media containing LB-100 (Cayman Chemical Company, Ann Arbor, Michigan) or Compound 2 at various concentrations (50-0.31 μM). Control cells were given fresh media. After 48 hours the media were aspirated and plates were washed with warmed Dulbecco's phosphate-buffered saline (DPBS) with calcium and magnesium (Sigma-Aldrich, catalog #D1283). Cells were stained with 3 μM calcein-AM (AAT Bioquest, Pleasanton, California, catalog #22002) in DPBS for 30 minutes in the dark at 37° C. Plates were immediately read with a Biotek fluorescent plate reader (excitation 485 nm, emission 520 nm). The cytotoxicity assays were performed at least three times, each time with six replicates per condition.

[6] = test system: HS-5 cells; experiment: Cytotoxicity assay (calcein-AM); type: cell-based; settings: HS-5, 48 hours
Method: as §3

[7] = test system: Rosi cells; experiment: Western blots; type: cell-based, human; settings: 20 μM
Method: (§4) MCF7, MDA-MB-231 and Rosi cells were treated with Compound 1 or Compound 2 at a concentration of 20 μM in complete medium, and lysates were harvested after 2, 4, 6, 8 and 12 hours in radioimmunoprecipitation assay buffer containing protease inhibitors (Boster Bio, Pleasanton, California, catalog #AR1182-1) and phosphatase inhibitors (Santa Cruz Biotechnology catalog #sc-45044 and #sc-45045). Protein concentrations were measured with a bicinchoninic acid assay (G-Biosciences, Saint Louis, Missouri). Fifty micrograms of each lysate were used for bis-tris polyacrylamide gel electrophoresis. Resolved lysates were transferred to nitrocellulose membranes. Membranes were blocked with TBS with 5% bovine serum albumin before incubation with primary antibodies.
(§5) Antibodies obtained from Cell Signaling Technology (Danvers Massachusetts) were, anti-PP2Ac (catalog #2038, 1:1,000 dilution), anti-phospho-adenosine monophosphate-activated protein kinase (pAMPKα2 threonine 172, catalog #2535, 1:1,000 dilution). Antibodies obtained from Proteintech (Rosemont, Illinois) include anti-phospho-receptor-interacting serine/threonine protein kinase-1 antibodies (pRIPK1 serine 161 (catalog #66854-1-Ig, 1:1,000 dilution) and pRIPK1 serine 166 (catalog #28252-1-AP, 1:10,000 dilution), anti-mixed lineage kinase domain like pseudokinase (MLKL, catalog #66675-1-Ig, 1:5,000 dilution), anti-AMPKα2, anti-phospho-acetyl-coenzyme A carboxylase (pACC1 serine 79, catalog #29119-1-AP, 1:1,000 dilution), anti-ACC1 (catalog #21923-1-AP, 1:2,000 dilution) and anti-β-actin (catalog #66009-1-Ig, 1:50,000 dilution). The anti-RIPKI antibody was obtained from AbClonal (Woburn, Massachusetts, catalog #A7414, 1:750 dilution). The anti-phospho-MLKL antibody was obtained from R&D Systems (Minneapolis, Minnesota, 1:1,000 dilution). The LCMT-1 antibody was obtained from Origene (Rockville, Maryland, catalog #TA503127S, 1:2,000 dilution). Appropriate IR-dye secondary antibodies were used (Alexa Fluor® 790-conjugated anti-mouse (catalog #115-655-146, 1:50,000 dilution), Alexa Fluor® 680-conjugated anti-mouse (catalog #115-625-146, 1:50,000 dilution), and Alexa Fluor® 680-conjugated anti-rabbit (catalog #115-625-144, 1:50,000 dilution) were obtained from Jackson ImmunoResearch Laboratories (West Grove, Pennsylvania). Band densities were normalized to β-actin, the endogenous control. At least five replicates were used for statistical analyses.

[8] = test system: MCF7 cells; experiment: Western blots; type: cell-based, human; settings: 20 μM
Method: as §4, §5

[9] = test system: MDA-MB-231 cells; experiment: Western blots; type: cell-based, human; settings: 20 μM
Method: as §4, §5

In the case of COC(=O)c1c(NC(=O)c2ccccc2C)sc(C(=O)Nc2cccc(C)c2)c1C [Compound 2, methyl 4-methyl-2-[(2-methylbenzoyl)amino]-5-[[(3-methylphenyl)amino]carbonyl]-3-thiophenecarboxylate], the half-life ([1]; human liver microsomes, read-out: Liver Microsomal Stability (t1/2) Human) is reported as 31.1 min, the half-life ([1]; mouse liver microsomes, read-out: Liver Microsomal Stability (t1/2) Mouse) is reported as 17.3 min and the radiosensitization [2] is reported as “did radiosensitize these cells”. The “LCMT-1i radiosensitizing Concentration” value [3] was 2.5 to 10 µM, the radiosensitization [4] was “did sensitize MCF7 cells to irradiation” and the EC50 [5] was 4.68 µM. The EC50 ([6]; HS5, read-out: Log [μM] EC50 (converted)) was 8.71 µM, the “concentration at which cytotoxicity was significant” value [6] was 20 µM and the “RIPK1 phosphorylation at serine 161” value [7] was “increased RIPK1 phosphorylation at serine 161”. The “phosphorylation of ACC1” value [7] was “increased phosphorylation of ACC1”, the “phosphorylation of AMPK” value [7] was “Increased phosphorylation of AMPK was not found” and the “phosphorylation of MLKL” value [7] was “Increased phosphorylation of MLKL was noted”. The PP2Ac methylation ([7]; Compound 2 significant at 6 hours) was “decreased PP2Ac methylation”, the “cytosolic PP2Ab expression” value ([7]; after 4-6 hours of exposure) was “decreased cytosolic PP2Ab expression” and the “RIPK1 phosphorylation at serine 161” value [8] was “did not statistically increase”. For the same compound, the “phosphorylation of ACC1” value [8] was “increased phosphorylation of ACC1”, the “phosphorylation of AMPK” value [8] was “Increased phosphorylation of AMPK was not found” and the “phosphorylation of MLKL” value [8] was “Increased phosphorylation of MLKL was noted”. The “cytosolic PP2Ab expression” value ([8]; after 4-6 hours of exposure) was “decreased cytosolic PP2Ab expression”, the PP2Ac methylation ([8]; lysates after 2, 4, 6, 8 and 12 hours) was “did not significantly decrease methylation of PP2Ac” and the “RIPK1 phosphorylation at serine 161” value [9] was “increased RIPK1 phosphorylation at serine 161”. The “cytosolic PP2Ab expression” value [9] was “did not change cytosolic expression PP2Ab”, the “phosphorylation of AMPK” value [9] was “Increased phosphorylation of AMPK was not found” and the “phosphorylation of MLKL” value [9] was “not in MDA-MB-231 cells”. For the same compound, the PP2Ac methylation ([9]; Compound 2 significant at 4 hours) was “decreased PP2Ac methylation”.
